Reference: patent US7803571B2, “Method for identifying IRS inhibitors or agonists” (Sanfoi-Aventis Deutschland GmbH, priority 2003, dated 2010)

Tests used:
Format in all cases: biochemical
[1] = tested on: PKC from rat brain (PKC-rb); experiment: Serine/threonine phosphorylation of rIRS-1^449-664 by PKC from rat brain ([32P]ATP, autoradiography); settings: 0.5 μg PKC-rb, 1 μg rIRS-1^449-664, 50 μM ATP
Protocol: For rIRS-1^449-664 phosphorylation by insulin receptor, […] of the WGA-purified glycoprotein fraction was preincubated for 30 min at 30° C. with 100 nM of insulin in a phosphorylation buffer containing 20 mM Hepes (pH 7.4), 1 mM DTT, 10 mM MgCl2, 100 μg/ml bovine serum albumin, 0.2 mM Na3VO4, 1.7 mM CaCl2, 0.6 mg/ml phosphatidylserine, and 0.5 μg/ml okadaic acid. Autophosphorylation was initiated by the addition of ATP at a concentration of 50 μM and continued for 10 min at 30° C. Substrate phosphorylations were initiated by addition of equal volumes of […] (1 μg) with or without pre-treatment (30 min) by the PKC isoforms in the same buffer in the presence of 50 μM ATP and was allowed to proceed for 10 min at 30° C. in a final volume of 50 μl. […] Proteins were separated by SDS-PAGE and analyzed by immunodetection with an anti-phosphotyrosine antibody after transfer to nitrocellulose. Serine/threonine phosphorylation of rIRS-1^449-664 by different PKC isoforms was assessed by incubating 1 μg rIRS-1^449-664 with 0.5 μg PKC-rb or PKC-ζ in phosphorylation buffer for 30 min at 30° C. in the presence of 50 μM ATP plus 2 μCi [γ-^32P]ATP in a volume of 20 μl. […] The extent of phosphate incorporation was determined by Cerenkov counting of excised fragments. […]

PKC = experiment: Phosphorylation of IRS-1 serine 612 by PKC, immunoblot with phosphoserine 612 antibody; settings: PKC from rat brain and PKC-ζ, 30 min at 30° C.
Protocol: (A) 0.5 μg of rIRS-1^449-664 was incubated with 0.5 μg of the different PKCs for 30 min at 30° C. and immunoblotted with an antibody against phosphoserine 612. A representative experiment is shown. (B) Binding of p85α to immobilized peptides corresponding to the IRS-1 amino acids 605 to 615 with phosphotyrosine 608 or (C) without phosphotyrosine using surface plasmon resonance (pY608 -DDGpYMPMSPGV and Y608 -DDGYMPMSPGV). Protein concentrations of p85α used were (from bottom to top): 1, 5,10, 25, 50,100, 250, 500 nM. (D) Inhibition of p85α binding by competition with soluble peptides pY608-DDGpYMPMSPGV or (E) pY608-pS612-DDGpYMPMpSPGV. The soluble peptides were also immobilized on the chip. (F) Half-maximum inhibitory concentrations (IC50) were obtained by plotting the SPR response at equilibrium (440 s after injection) versus the log peptide concentration.
The inventors assessed modification of this site by PKC using a specific IRS-1 phosphoserine 612 antibody (αpS^612).

insulin receptor = molecular target: T1, insulin receptor (Rattus norvegicus, UniProt P15127); experiment: In vitro phosphorylation assay: tyrosine phosphorylation of rIRS-1^449-664 by insulin receptor; settings: BIM added for 10 min before substrate phosphorylation by IR
T1 construct: from tissue; host or cells: rat liver
T1 sequence (P15127 27-759 limits assumed): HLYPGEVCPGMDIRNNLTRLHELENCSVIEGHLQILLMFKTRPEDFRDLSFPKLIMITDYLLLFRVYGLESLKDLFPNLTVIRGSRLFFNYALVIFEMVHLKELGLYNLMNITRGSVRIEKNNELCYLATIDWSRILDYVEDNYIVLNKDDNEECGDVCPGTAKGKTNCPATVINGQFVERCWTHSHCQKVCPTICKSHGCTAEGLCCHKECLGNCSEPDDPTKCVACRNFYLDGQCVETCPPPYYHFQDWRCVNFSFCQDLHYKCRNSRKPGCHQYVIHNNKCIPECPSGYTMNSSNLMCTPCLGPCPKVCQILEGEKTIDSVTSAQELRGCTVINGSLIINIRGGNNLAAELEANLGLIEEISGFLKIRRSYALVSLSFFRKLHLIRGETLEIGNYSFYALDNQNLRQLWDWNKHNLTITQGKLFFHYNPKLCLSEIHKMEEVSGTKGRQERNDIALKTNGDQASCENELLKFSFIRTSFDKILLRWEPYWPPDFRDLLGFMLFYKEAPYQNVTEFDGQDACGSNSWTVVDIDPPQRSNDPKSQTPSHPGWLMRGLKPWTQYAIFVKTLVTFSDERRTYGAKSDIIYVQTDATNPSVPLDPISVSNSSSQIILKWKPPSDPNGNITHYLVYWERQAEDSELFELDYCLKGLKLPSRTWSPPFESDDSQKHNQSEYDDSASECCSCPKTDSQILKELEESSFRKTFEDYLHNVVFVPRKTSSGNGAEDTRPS
Protocol: Rat liver was rapidly removed, immediately frozen in liquid nitrogen and processed as described (41). Briefly, 3.5 vol/wt of an ice-cold buffer consisting of 50 mM Hepes (pH 7.4), 1% Triton X-100 and 2× Complete Protease Inhibitors was added and the liver was homogenized using an Ultraturrax and a Potter-Elvehjem homogenizer, followed by centrifugation at 10,000×g for 10 min at 4° C. The resultant supernatant was slowly stirred at room temperature for 60 min, then again centrifuged at 100,000×g for 90 min at 4° C. The supernatant was then applied to an agarose-bound wheat germ agglutinin (WGA) column. The column was washed with 50 mM Hepes (pH 7.4), 0.1% Triton X-100, and bound glycoproteins were eluted from the WGA column with this buffer containing 0.3 M N-acetylglucoseamine.
For rIRS-1^449-664 phosphorylation by insulin receptor, […] of the WGA-purified glycoprotein fraction was preincubated for 30 min at 30° C. with 100 nM of insulin in a phosphorylation buffer containing 20 mM Hepes (pH 7.4), 1 mM DTT, 10 mM MgCl2, 100 μg/ml bovine serum albumin, 0.2 mM Na3VO4, 1.7 mM CaCl2, 0.6 mg/ml phosphatidylserine, and 0.5 μg/ml okadaic acid. Autophosphorylation was initiated by the addition of ATP at a concentration of 50 μM and continued for 10 min at 30° C. Substrate phosphorylations were initiated by addition of equal volumes of […] (1 μg) with or without pre-treatment (30 min) by the PKC isoforms in the same buffer in the presence of 50 μM ATP and was allowed to proceed for 10 min at 30° C. in a final volume of 50 μl. The reaction was terminated by the addition of 6× sample buffer (0.35 M Tris-HCl (pH 6.8), 10.28% (w/v) SDS, 36% (v/v) glycerol; 0.6 M DTT, 0.012% (w/v) bromphenol blue) and boiling for 5 min. Proteins were separated by SDS-PAGE and analyzed by immunodetection with an anti-phosphotyrosine antibody after transfer to nitrocellulose. Serine/threonine phosphorylation of rIRS-1^449-664 by different PKC isoforms was assessed by incubating 1 μg rIRS-1^449-664 with 0.5 μg PKC-rb or PKC-ζ in phosphorylation buffer for 30 min at 30° C. in the presence of 50 μM ATP plus 2 μCi [γ-^32P]ATP in a volume of 20 μl. Proteins were resolved by SDS-PAGE and the stained and dried gels were subjected to autoradiography. The extent of phosphate incorporation was determined by Cerenkov counting of excised fragments.
Proteins were separated by SDS-PAGE using 8-18% gradient gels followed by transfer to nitrocellulose in a semi-dry blotting apparatus. […] All blots were quantified using the Lumilmager software. Significance of reported differences was evaluated by using the null hypothesis and t statistics for unpaired data. […]

CN(C)CCCn1cc(C2=C(c3c[nH]c4ccccc34)C(=O)NC2=O)c2ccccc21 [BIM, bisindolylmaleimide I]
Phosphorylation of rIRS-1^449-664 by PKC-rb in the presence of inhibitor [1]: inhibited
Phosphorylation of serine 612 of rIRS-1^449-664 by PKC in the presence of inhibitor (PKC): clearly prevented the phosphorylation of this serine
Effect of inhibiting PKC-rb after phosphorylation of rIRS-1^449-664 on the reduced tyrosine phosphorylation and p85α association (insulin receptor): did not modify this result
